For data set [1], the system named is p-ALK. Nature of the data set: Western blot, p-ALK. The conditions noted are these: WB, 5, 10 and 100 nM, 3 h treatment. Type of data set: cell-based, human. How it is done: (§1) Four kinases (EGFR, EGFR^L858R/T790M, ALK, and EML4-ALK) were tested using an ELISA assay. […] There was no effect on the wild-type EGFR or ALK kinases triggered by the compound. Consequently, the selection of the compound was good as both compounds balanced IC50 against EGFR and ALK, respectively. […] Following that, fluorescence assays were used to measure the phosphorylation of the EGFR and ALK protein affect with compound 9j at the cellular level. […] Next, WB assay was used to test the protein expression of H1975 and H2228 cells at the concentration of 5, 10, and 100 nM.
(§2) H1975 (H2228) cells seeded in 60 mm dishes at a density of 5 × 10^5 cells/well were incubated with or without compound 9j (0, 5, 10, 100 nM) for 2–4 h. After treatment, cells were stained as previously described.

For data set [2], the system named is p-ERK. The data set is described as follows: Western blot, p-ERK. The following applies: WB, 5, 10 and 100 nM, 3 h treatment. Type of data set: cell-based, human. The protocol: as §1, §2
Data set [3] relates to HK2 (human kidney proximal convoluted tubule epithelial cells). The data set is described as follows: Cytotoxicity test on nontumorigenic cells, HK2. The format is cell-based. From the text: (§3) It is critical to evaluate the balance between the safety and efficacy of drugs for the development of new drugs; thus, we then conducted a cytotoxicity test on […] types of nontumorigenic cell lines from different origins, including LO2 (human normal liver cells), HK2 (human kidney proximal convoluted tubule epithelial cells), HLF (human embryonic lung fibroblast), 293A (human embryonic kidney cells), and HUVEC (human umbilical vein endothelial cells). […] In addition, we evaluated the compound’s safety in vivo by performing acute toxicity tests in mice, and 9j was injected intravenously at concentrations of 100 mg/kg, 150 mg/kg, and 300 mg/kg.
(§4) A total of 7000 cells per well were seeded in a 96-well plate with at least three technical replicates; then, exposed to different concentrations (10, 5, 1, 0.1, 0.05, 0.01 uM) of the test compounds for 72 h. After the treatment, CCK8 (Sigma, St. Louis, MO, USA) was added to each well under sterile conditions (to a final concentration of 10% of the total volume) and the plates were incubated for 2–4 h at 37 °C. Absorbance was measured at 450 nm in a microplate reader.

For data set [4], the system named is phosphorylated ALK (p-ALK). Nature of the data set: Immunofluorescence assay of phosphorylated ALK. The format is cell-based, human. The conditions noted are these: fluorescence assay, treatment for 2 to 4 h. The protocol:
as §1
Figure 2 (A) The activity of compound 9j against four kinases (EGFR, ALK, EGFR ^L858R T790M, and EML4-ALK). (B) H1975 and H2228 cells were treated with 9j for 2–4 h; the staining for phosphorylated EGFR (p-EGFR) and phosphorylated ALK (p-ALK) was shown as red fluorescence. (C) WB analysis of phosphorylated proteins in drug-treated H1975 and H2228 cells.

In data set [5] the test system is H1975 cells. Nature of the data set: Transwell migration and invasion assay. Type of data set: cell-based, human. The protocol: The migration and invasion of tumor cells directly contribute to metastasis. Metastasis is the leading cause of death in cancer patients. To determine the ability of 9j to inhibit tumor cell migration, the cell scratching assay was performed. Following scratching, phase contrast pictures were taken of the scratched and healing cell monolayers.
Migration assay was performed using an 8 um pore Boyden chamber (24-well, #353097, Corning, NY, USA), and incubated in the presence or absence of compound 9j. A total of 50,000 cells were seeded in serum-free medium in the top chamber and allowed to migrate for 48 h toward the bottom chamber containing 10% fetal bovine serum medium. Cells were fixed and permeabilized with cold 70% ethanol and methanol, and stained with 0.4% crystal violet. The average number of migrating cells was evaluated from at least four independent microscope fields.

Data set [6] deals with mice. The data set is described as follows: Acute toxicity test in mice. The following applies: injected intravenously, 100, 150 and 300 mg/kg (Figure S1).
Description: as §3

The test system of data set [7] is H1975 cells. The data set is described as follows: Apoptosis assay by flow cytometry (annexin V / PI). The following applies: 48 h, control 6.07%. The format is cell-based, human. From the text:
The death of cells occurs by apoptosis, and the uncontrolled division and multiplication of cells causes cancer. Inhibiting cellular apoptosis is primarily responsible for cancer cell survival, since cellular apoptosis is negatively correlated with cell growth. We then verified the antitumor effect of compound 9j by inducing apoptosis through flow cytometry.
To assay the number of apoptotic cells, cells were stained with allo-phycocyanin–annexin V (#550475, BD Pharmingen, Becton Drive Franklin Lakes, NJ, USA) for 15 min; then, they were washed and resuspended in 1:500 propidium iodide (#81845, Sigma-Aldrich, St. Louis, Mo, USA) viability marker, and acquired on LSRFortessa. Data were analyzed with FlowJo software. Annexin V+ cells were considered as apoptotic cells.
(In flow cytometry, cells or beads pass a laser one at a time.)

In data set [8] the test system is H1975 (EGFR T790M/L858R) cells. The data set is described as follows: CCK8 antiproliferative assay, H1975 cells. Type of data set: cell-based, human. The following applies: Homo sapiens. The source says:
The human cancer cell lines (H1975, H2228) used in this study were purchased from the Guangzhou ginny ou biotechnology Co., Ltd. (Guangzhou, China). The human cancer cell lines (NCI-H522) used in this study were purchased from the Shenzhen Haodi Huatuo Biotechnology Co., LTD (Shenzhen, China). The human cancer cell lines (LOVO, HLF, BJ, LO2) used in this study were purchased from the Laboratory Animal Service Center at Sun Yat-sen University (Guangzhou, China). […] Cell lines LOVO, HLF, BJ, and LO2 were cultivated in DMEM containing 10% (v/v) heat-inactivated fetal bovine serum (FBS), 100 units/mL penicillin, and 100 μg/mL streptomycin.
(Tetrazolium assays rely on reduction of a dye to a coloured formazan, in cell work by metabolically active cells.)

Data set [9] deals with EGFR wild-type kinase (Homo sapiens, UniProt P00533). The data set is described as follows: Kinase ELISA assay, wild-type EGFR. The format is biochemical. How it is done:
as §1
(An ELISA detects its analyte on a solid surface through an enzyme-linked reagent.)

In data set [10] the target is EML4-ALK (Homo sapiens, UniProt Q9UM73). The data set is described as follows: Kinase ELISA assay, EML4-ALK. The conditions noted are these: read-out: IC50 against EML4-ALK. The format is biochemical. The protocol: as §1
In data set [11] the test system is LO2 (human normal liver cells). Nature of the data set: Cytotoxicity test on nontumorigenic cells, LO2. Type of data set: cell-based.
Description: as §3, §4

Read-outs that look alike come from different tables or passages of the source.

Sequence of EGFR wild-type kinase (P00533 25-1210): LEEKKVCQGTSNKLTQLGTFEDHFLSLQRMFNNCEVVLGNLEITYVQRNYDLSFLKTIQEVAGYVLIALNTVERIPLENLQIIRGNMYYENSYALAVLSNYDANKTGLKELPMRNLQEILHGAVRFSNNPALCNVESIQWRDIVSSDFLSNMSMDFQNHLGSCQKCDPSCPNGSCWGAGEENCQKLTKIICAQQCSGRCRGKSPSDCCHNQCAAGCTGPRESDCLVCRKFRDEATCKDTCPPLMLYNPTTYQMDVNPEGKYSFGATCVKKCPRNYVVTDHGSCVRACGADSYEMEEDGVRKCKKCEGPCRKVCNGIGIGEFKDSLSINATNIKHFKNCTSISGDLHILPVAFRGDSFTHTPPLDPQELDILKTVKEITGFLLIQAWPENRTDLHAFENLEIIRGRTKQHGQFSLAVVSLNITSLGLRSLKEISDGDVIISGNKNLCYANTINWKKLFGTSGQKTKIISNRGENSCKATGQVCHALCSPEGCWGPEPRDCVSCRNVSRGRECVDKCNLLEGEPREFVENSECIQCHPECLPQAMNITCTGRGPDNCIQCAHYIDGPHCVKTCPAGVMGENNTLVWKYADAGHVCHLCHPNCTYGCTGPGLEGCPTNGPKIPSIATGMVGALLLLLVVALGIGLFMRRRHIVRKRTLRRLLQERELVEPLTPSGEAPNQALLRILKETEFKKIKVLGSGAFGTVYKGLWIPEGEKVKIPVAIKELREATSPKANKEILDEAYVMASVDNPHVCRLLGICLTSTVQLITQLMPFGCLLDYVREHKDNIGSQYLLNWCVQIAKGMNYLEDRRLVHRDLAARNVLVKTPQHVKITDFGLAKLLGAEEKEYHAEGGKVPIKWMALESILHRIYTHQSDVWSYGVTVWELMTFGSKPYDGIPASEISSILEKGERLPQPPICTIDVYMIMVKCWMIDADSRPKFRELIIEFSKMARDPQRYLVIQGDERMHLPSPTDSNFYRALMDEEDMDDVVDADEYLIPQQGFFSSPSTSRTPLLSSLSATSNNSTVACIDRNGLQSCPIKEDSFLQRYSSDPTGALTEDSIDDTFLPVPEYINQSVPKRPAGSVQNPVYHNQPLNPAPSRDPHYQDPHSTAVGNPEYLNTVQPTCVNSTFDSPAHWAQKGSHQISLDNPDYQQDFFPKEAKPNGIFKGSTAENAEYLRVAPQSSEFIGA
Sequence of EML4-ALK (Q9UM73 1058-1620): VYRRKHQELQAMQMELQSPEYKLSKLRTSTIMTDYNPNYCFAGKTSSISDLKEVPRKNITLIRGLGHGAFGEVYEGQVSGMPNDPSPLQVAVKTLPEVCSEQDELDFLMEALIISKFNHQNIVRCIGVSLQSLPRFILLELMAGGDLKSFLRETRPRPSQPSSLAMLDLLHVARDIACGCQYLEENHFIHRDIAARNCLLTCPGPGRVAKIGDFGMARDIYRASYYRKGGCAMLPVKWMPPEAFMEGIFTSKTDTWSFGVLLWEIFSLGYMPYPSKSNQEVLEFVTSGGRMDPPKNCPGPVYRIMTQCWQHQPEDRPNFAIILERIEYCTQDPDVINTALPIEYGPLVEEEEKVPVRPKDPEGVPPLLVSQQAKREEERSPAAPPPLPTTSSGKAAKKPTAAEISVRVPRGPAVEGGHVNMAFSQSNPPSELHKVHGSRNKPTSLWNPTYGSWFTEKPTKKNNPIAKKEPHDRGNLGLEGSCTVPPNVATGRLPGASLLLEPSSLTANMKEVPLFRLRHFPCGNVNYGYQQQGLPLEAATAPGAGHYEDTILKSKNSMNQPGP
Sequence of EML4-ALK (Q9HC35 1-496, further chain): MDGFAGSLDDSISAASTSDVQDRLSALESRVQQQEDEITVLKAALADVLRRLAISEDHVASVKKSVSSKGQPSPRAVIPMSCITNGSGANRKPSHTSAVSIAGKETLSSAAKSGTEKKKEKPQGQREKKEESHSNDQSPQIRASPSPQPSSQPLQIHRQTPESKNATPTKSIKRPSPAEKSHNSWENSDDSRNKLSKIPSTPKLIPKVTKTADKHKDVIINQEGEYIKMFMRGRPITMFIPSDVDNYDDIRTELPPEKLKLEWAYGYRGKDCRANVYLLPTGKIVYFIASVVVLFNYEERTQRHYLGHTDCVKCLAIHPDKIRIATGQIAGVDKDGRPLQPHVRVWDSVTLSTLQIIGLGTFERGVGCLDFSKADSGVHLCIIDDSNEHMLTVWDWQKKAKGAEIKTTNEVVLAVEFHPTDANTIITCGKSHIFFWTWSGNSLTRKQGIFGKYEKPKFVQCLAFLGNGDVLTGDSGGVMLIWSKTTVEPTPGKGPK

For `C=CC(=O)Nc1cc(Nc2ncc(Cl)c(Nc3ccc(Cl)cc3[S+]([O-])C(C)C)n2)c(OC)cc1C1CCN(C)CC1` (stereo not shown) [9j, N-(5-((5-Chloro-4-((4-chloro-2-(isopropylsulfinyl)phenyl)amino)pyrimidin-2-yl)amino)-4-methoxy-2-(1-methylpiperidin-4-yl)phenyl)acrylamide], the “expression of p-ALK” value in data set [1] is “inhibited”. Besides, in data set [2], the “expression of p-ERK” value is reported as “inhibited”. In addition, the “Selectivity Ratio (IC50 human normal cells)/(IC50 H1975), HK2” value in [3] (HK2 vs H1975) is on record as 329.6. For the same compound, the IC50 (usually the concentration that inhibits the measured activity by half) in data set [3] (Homo sapiens, Epithelial cell, HK2, mean ± SE, read-out: Toxicity to normal cells, IC50 HK2) came to 25710 ± 80 nM; in [8] (NCI-H1975, 72 h, CCK8 assay, 72 h, H1975 (EGFR T790M/L858R), read-out: IC50 H1975), 78.3 ± 30 nM; in data set [8] (NCI-H1975, H1975, mean ± SE, unit inferred, read-out: IC50 H1975 (Table 2)), 78.3 ± 30 nM; in data set [9] it was 236 ± 27 nM; in [10], 56.3 ± 0.3 nM; in data set [11] (Homo sapiens, LO2, mean ± SE, read-out: Toxicity to normal cells, IC50 LO2), 23960 ± 30 nM. The “expression level of phosphorylated ALK protein” value in data set [4] is recorded as “decreased significantly”. The invasion ability entry in [5] was “reduced its invasion ability in a concentration-dependent manner”. The “HE staining of lung and heart tissues” value in [6] is listed as “did not indicate toxicity”. The apoptotic rate in [7] (10 nM) came to 12.7%; in [7] (50 nM), 26.8%; in data set [7] (100 nM), 47.67%. Further, in [11] (LO2 vs H1975), the “Selectivity Ratio (IC50 human normal cells)/(IC50 H1975), LO2” value is 306.1.
